23 molecules from ChEMBL document CHEMBL4418264, “2,4,5-trisubstituted thiazole compounds,preparation methods,pharmaceutical compositions and medical uses thereof” (2014) can be followed below.

The target in test [1] is Phospholipid transfer protein (Homo sapiens) (UniProt P55058). The test is described as follows: Inhibition of PLTP in plasma (unknown origin) assessed as reduction in phospholipid transfer from phospholipid liposome to HDL at 250 uM measured after 1 hr relative to control. The test is classed as cell-free.
Sequence of Phospholipid transfer protein (Homo sapiens) (P55058 whole entry): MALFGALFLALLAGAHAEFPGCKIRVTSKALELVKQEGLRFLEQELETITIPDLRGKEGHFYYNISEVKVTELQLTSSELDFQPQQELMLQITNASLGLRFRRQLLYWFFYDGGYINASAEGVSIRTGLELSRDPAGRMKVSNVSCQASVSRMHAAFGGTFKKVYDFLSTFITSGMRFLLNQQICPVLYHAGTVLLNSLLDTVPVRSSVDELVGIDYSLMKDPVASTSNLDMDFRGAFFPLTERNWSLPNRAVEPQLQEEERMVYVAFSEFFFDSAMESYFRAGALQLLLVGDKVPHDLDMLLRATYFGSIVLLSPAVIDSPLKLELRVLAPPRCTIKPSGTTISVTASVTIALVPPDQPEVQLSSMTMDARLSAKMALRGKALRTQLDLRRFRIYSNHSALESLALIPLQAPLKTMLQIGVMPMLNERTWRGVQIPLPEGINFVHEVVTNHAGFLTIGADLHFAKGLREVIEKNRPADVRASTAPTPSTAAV
Test [2] deals with T1, Cholesteryl ester transfer protein (Homo sapiens) (UniProt P11597).
T1 sequence (whole entry): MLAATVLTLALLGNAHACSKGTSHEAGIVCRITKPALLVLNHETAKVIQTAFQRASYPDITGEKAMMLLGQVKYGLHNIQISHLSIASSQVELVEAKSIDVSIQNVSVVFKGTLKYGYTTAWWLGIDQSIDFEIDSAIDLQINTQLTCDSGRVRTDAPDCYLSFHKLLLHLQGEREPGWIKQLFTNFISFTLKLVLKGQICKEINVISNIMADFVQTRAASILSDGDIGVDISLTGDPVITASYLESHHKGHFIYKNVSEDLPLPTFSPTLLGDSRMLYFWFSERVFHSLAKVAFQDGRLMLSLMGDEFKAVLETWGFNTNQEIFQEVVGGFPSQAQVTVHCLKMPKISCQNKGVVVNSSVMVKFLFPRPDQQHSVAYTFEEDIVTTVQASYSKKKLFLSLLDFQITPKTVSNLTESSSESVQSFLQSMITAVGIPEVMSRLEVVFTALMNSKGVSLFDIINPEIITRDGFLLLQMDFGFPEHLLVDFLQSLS
The test is described as follows: Inhibition of CETP (unknown origin) at 500 uM incubated for 0.5 hrs by double illuminometer/fluorescence counter method relative to control.

The target of test [3] is Phospholipid transfer protein (Homo sapiens) (UniProt P55058). In words: Inhibition of PLTP in plasma (unknown origin) assessed as reduction in phospholipid transfer from phospholipid liposome to HDL at 500 uM measured after 1 hr relative to control. The test is classed as cell-free.
Test [4] shares this target. The test is described as follows: Inhibition of PLTP in plasma (unknown origin) assessed as reduction in phospholipid transfer from phospholipid liposome to HDL at 150 uM measured after 1 hr relative to control. The test is classed as cell-free.

For the molecule `COc1ccc(-c2nc(N)sc2Cc2ccc(F)cc2)cc1`, the inhibition was found to be 11.5% in test [1] and 52.8% in test [2].

Turning to `COc1ccc(-c2nc(N3CCNCC3)sc2Cc2ccccc2)cc1`, the inhibition in test [3] was 100%; in test [2], 74.5%.

On to `Cc1sc(NC(=O)c2cc(O)c(O)c(O)c2)nc1-c1ccc(O)cc1`, for which the inhibition in test [1] is 10.7%; in test [2] it was 85.9%.

Turning to `COc1ccc(-c2nc(N)sc2CC2CCCCC2)cc1`, the inhibition in test [2] amounted to 79.8%; in test [4], 0%.

Consider `O=C(Nc1nc(-c2ccc(O)cc2)c(Cc2ccc([N+](=O)[O-])cc2)s1)c1ccc(O)c(O)c1`, for which the results for the inhibition in test [1] and in test [2] were 67.6% and 30.4%, respectively.

Take `O=C(Nc1nc(-c2ccc(O)cc2)c(Cc2ccccc2)s1)c1ccc(O)c(O)c1`: the inhibition in test [1] was 79.8%; in test [2] it was 19.4%.

For the molecule `COc1ccc(-c2nc(N3CCOCC3)sc2Cc2ccccc2)cc1`, the values for the inhibition in test [3] and in test [2] were 61% and 91.6%, respectively.

Consider `COc1ccc(C(=O)Nc2nc(-c3ccc(O)cc3)c(Cc3ccccc3)s2)cc1`, for which the inhibition amounted to 71.6% in test [2] and 0% in test [4].

For the molecule `O=C(Nc1nc(-c2ccc(O)cc2)c(CC2CCCCC2)s1)c1ccc(O)c(O)c1`, the values for the inhibition in test [2] and in test [4] were 6% and 81.6%, respectively.

Consider `O=C(Nc1nc(-c2ccc(O)cc2)c(CC2CCCCC2)s1)c1cc(O)c(O)c(O)c1`, for which the figures for the inhibition in test [1] and in test [2] were 100% and 20.9%, respectively.

Consider `CCCCc1sc(N)nc1-c1ccc(OC)cc1`, for which the values for the inhibition in test [1] and in test [2] were 15.3% and 65.4%, respectively.

As to `O=C(Nc1nc(-c2ccccc2)c(Cc2ccc([N+](=O)[O-])cc2)s1)c1ccc(O)c(O)c1`, the inhibition in test [1] was found to be 100%; in test [2] it was 0%.

For the molecule `O=C(Nc1nc(-c2ccc(O)cc2)c(Cc2ccc(F)cc2)s1)c1ccc(O)c(O)c1`, the inhibition worked out at 73.2% in test [1] and 9.2% in test [2].

For the molecule `COc1ccc(-c2nc(N)sc2CCc2ccccc2)cc1`, the values for the inhibition in test [1] and in test [2] were 24% and 75.8%, respectively.

Consider `O=C(Nc1nc(-c2ccc(F)cc2)c(Cc2ccc([N+](=O)[O-])cc2)s1)c1ccc(O)c(O)c1`, for which the inhibition in test [1] is 100%; in test [2] it was 0%.

As for `Cc1sc(NC(=O)c2ccc(O)c(O)c2)nc1-c1ccc(O)cc1`, the inhibition in test [1] came to 71.9%; in test [2], 58.7%.

On to `O=C(Nc1nc(-c2ccc(O)cc2)c(Cc2ccccc2)s1)c1ccc(Cl)cc1`, for which the inhibition came to 80.4% in test [2] and 0% in test [4].

Take `O=C(CCc1ccc(O)c(O)c1)Nc1nc(-c2ccc(O)cc2)c(Cc2ccccc2)s1`: the inhibition in test [2] is 25.3%; in test [4], 75.7%.

Regarding `O=C(Nc1nc(-c2ccc(O)cc2)c(Cc2ccccc2)s1)c1cc(O)c(O)c(O)c1`, the inhibition came to 44.1% in test [2] and 89.4% in test [4].

On to `O=C(Nc1nc(-c2ccc(O)cc2)c(Cc2ccccc2)s1)c1ccc(O)cc1O`, for which the inhibition in test [2] was determined as 88%; in test [4] it was 11.5%.

As for `CCCCc1sc(NC(=O)c2ccc(O)c(O)c2)nc1-c1ccc(O)cc1`, the inhibition in test [1] is 93.4%; in test [2], 0%.

For `O=C(Nc1nc(-c2ccc(O)cc2)c(CCc2ccccc2)s1)c1ccc(O)c(O)c1`, the results for the inhibition in test [1] and in test [2] were 97% and 0%, respectively.

For `CCCCc1sc(NC(=O)c2cc(O)c(O)c(O)c2)nc1-c1ccc(O)cc1`, the inhibition turned out to be 100% in test [1] and 27.3% in test [2].

As a reminder, the inhibition is the relative decrease from the control value, in per cent.
